Columns and labels:
ΔC2 SHIP = assay: SHIP enzyme assay with C2 domain deleted SHIP; format: biochemical; conditions: PI-3,4-P2 20 μM or Compound 100 3 μM, 30 μM IP4
Text: A His6 tagged SHIP ΔC2 domain deletion mutant (deleting residues 725 to 863) in the mammalian expression vector pME18S was generated by a standard PCR-based methodology. An N-terminal His6 C2 domain construct was also generated by PCR inserted into the pET28C bacterial expression vector using EcoRI and NdeI restriction sites.
The allosteric regulation of enzymes has remained under-appreciated primarily because allosteric effectors are not easy to find. The molecular mechanism by which Compound 100 activated SHIP was investigated, first by performing classical enzyme kinetic analysis of its phosphatase activity. Activity measurements were performed with substrate concentrations from 10-100 μM.
The SHIP protein contains a C2 domain located at the carboxyterminal end of its phosphatase domain. […] SHIP lacking its the C2 domain (ΔC2 SHIP) was prepared.

wild-type SHIP = assay: Scintillation proximity assay, wild-type and ΔC2 SHIP; format: binding; conditions: [3H]-Compound 100, SPA beads
Protocol: Compound 100 was radiolabelled with tritium by GE Healthcare (Piscataway, N.J.) to a specific activity of 42 Ci/mmole. Copper chelate (His-Tag) YSi SPA Scintillation Beads (GE Healthcare, Piscataway, N.J.) were diluted in 0.25% BSA/TBS to 1.5 mg/mL and recombinant, His6-tagged protein added at the indicated concentrations: wild-type (1 μM), ΔC2 SHIP enzyme (1 pM) or C2 domain (10 nM). Protein was allowed to bind 1 h at 23° C., and 250 μg of beads were aliquoted per well of a 96-well plate. 5 μCi of [^3H]-Compound 100 was added per well, the plate gently agitated for 30 min and the amount of bead associated radioactivity quantified by counting in a Wallac BetaPlate plate scintillation counter.
Isolated recombinant, His6-tagged C2 domain was expressed and its PI-3,4-P2 binding ability was determined using protein lipid overlay assays. Purified C2 domain was incubated with membrane strips spotted with PI-3,4-P2 and bound protein detected using an anti-His6 antibody. As shown in FIG. 11C the C2 domain bound PI-3,4-P2 and this binding was inhibited by Compound 100, consistent with both Compound 100 and PI-3,4-P2 interacting with the C2 domain at a common binding site.

ΔC2 SHIP enzyme activity (ΔC2 SHIP): could not be enhanced
Structure (SMILES): Cc1cc(O)cc2c1[C@]1(C)CCC3C(C)(C)CCC[C@]3(C)[C@H]1C2 (some centres unmarked) [Compound 100]
binding to wild-type SHIP vs SHIP lacking C2 domain (wild-type SHIP): bound to wild-type SHIP but not to SHIP lacking its C2 domain
